The values that follow come from PMC12155096 (International Journal of Molecular Sciences, 2025).

SMILES strings stand for the structures. Like-named read-outs stand apart in the source and are kept apart here.

Common to all, as to experiment: biochemical
In experiment [1] the target is Photinus pyralis (firefly) luciferase (Photinus pyralis, UniProt P08659). It counts as biochemical.
For experiment [2], the target named is T1, human CYP1A2 (Homo sapiens, UniProt P05177).
T1 sequence (P05177 1-516): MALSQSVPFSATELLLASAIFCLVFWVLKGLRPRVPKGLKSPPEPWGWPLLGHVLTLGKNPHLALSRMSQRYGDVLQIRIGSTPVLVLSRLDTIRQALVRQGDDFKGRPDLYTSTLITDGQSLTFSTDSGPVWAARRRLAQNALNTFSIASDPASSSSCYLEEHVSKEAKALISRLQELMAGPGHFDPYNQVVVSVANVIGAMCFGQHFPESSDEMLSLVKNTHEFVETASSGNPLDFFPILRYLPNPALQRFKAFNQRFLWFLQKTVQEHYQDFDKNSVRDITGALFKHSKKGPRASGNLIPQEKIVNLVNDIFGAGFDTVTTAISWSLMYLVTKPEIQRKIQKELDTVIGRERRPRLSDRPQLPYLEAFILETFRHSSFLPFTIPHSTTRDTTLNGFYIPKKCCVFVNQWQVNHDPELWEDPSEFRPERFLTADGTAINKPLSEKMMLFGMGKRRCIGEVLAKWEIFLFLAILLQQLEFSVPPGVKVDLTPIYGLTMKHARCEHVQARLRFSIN

Experiment [3] has as its target human CYP2C9 (Homo sapiens, UniProt P11712).
In experiment [4] the target is human CYP2C19 (Homo sapiens, UniProt P33261).
In experiment [5] the target is human CYP2D6 (Homo sapiens, UniProt P10635).
Experiment [6] addresses CYP3A4 (Homo sapiens, UniProt P08684).
The mark [7] stands for this setting: CYP1A2 IC50 (half-maximal inhibitory concentration).
[8] abbreviates: CYP2C9 IC50 (half-maximal inhibitory concentration).
Setting [9] is: CYP2C19 IC50 (half-maximal inhibitory concentration).
[10] abbreviates: CYP2D6 IC50 (half-maximal inhibitory concentration).
Setting [11] is: CYP3A4 IC50 (half-maximal inhibitory concentration).

One may read the IC50 as the concentration that gives 50% inhibition. Higher therefore signals weaker potency in that assay. Usually AC50 stands for the concentration giving half of the maximal activity seen. Read a low AC50 as activity at low concentration.

Sequence of human CYP2C19 (P33261 whole entry): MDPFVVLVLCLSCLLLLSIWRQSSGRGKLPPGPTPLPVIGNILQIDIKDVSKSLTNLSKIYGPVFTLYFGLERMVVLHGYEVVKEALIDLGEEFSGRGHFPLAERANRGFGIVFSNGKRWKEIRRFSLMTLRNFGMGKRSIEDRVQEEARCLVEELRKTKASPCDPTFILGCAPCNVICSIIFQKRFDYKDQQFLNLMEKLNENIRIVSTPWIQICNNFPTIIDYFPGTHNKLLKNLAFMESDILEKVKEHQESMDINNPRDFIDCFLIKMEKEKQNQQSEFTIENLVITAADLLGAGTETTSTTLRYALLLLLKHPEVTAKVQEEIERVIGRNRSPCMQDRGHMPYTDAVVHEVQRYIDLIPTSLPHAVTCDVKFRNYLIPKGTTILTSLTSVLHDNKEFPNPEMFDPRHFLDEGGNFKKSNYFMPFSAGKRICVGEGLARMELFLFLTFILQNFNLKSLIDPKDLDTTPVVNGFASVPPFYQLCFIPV
Sequence of human CYP2D6 (P10635 whole entry): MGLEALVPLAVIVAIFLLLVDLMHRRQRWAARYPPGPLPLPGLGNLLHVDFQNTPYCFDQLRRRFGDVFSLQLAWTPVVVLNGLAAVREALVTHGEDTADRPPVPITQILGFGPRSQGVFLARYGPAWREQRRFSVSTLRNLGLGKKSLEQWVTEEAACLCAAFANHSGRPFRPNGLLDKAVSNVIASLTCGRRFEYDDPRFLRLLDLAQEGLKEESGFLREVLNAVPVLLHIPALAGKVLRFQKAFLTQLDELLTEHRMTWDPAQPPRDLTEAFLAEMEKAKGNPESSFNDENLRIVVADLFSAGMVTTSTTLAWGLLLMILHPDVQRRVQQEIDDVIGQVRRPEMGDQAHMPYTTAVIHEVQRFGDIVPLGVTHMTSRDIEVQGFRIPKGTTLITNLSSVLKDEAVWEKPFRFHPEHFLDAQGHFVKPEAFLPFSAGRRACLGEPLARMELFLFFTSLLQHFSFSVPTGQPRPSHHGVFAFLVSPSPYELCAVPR
Sequence of CYP3A4 (P08684 whole entry): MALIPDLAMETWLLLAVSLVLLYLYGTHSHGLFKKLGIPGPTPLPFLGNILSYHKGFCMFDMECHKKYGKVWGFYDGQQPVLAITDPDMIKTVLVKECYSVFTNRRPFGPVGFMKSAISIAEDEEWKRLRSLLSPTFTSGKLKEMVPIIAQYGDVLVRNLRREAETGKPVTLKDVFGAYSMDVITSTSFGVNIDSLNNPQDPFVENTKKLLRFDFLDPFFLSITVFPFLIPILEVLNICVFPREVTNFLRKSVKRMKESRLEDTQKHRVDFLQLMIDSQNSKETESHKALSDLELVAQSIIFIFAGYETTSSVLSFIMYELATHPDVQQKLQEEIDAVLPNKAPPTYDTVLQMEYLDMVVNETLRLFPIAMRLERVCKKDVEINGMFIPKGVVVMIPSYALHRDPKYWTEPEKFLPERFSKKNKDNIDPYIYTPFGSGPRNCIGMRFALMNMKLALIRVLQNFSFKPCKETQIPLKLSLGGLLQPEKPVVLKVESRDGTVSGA
Sequence of human CYP2C9 (P11712 whole entry): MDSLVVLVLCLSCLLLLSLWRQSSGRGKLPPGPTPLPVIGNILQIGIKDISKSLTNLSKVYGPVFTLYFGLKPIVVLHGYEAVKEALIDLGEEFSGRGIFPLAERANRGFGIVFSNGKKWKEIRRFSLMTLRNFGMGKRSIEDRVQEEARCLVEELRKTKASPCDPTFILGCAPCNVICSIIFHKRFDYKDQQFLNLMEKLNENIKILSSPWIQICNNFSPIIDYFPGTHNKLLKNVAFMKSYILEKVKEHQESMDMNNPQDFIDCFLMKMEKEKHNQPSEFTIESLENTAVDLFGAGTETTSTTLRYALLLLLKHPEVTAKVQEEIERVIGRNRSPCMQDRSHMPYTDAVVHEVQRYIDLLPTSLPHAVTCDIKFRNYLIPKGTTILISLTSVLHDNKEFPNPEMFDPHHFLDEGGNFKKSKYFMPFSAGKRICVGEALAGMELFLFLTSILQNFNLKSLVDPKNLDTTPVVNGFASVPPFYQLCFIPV
Sequence of Photinus pyralis (firefly) luciferase (P08659 whole entry): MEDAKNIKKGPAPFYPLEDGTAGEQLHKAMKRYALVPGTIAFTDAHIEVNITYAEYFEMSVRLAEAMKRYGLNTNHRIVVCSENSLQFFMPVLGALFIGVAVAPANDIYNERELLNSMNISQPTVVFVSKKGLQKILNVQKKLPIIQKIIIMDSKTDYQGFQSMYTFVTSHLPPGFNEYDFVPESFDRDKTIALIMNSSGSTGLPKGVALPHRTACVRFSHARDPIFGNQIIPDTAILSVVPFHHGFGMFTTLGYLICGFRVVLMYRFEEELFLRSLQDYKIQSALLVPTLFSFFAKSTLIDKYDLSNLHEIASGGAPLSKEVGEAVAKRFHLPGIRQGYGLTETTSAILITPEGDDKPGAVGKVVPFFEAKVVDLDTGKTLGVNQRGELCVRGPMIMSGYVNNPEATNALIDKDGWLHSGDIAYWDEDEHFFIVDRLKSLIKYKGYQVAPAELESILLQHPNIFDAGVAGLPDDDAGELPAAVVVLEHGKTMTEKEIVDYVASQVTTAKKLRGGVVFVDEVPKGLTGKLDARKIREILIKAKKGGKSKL

For `CC(C)Nc1ccc(Nc2ccccc2)cc1` [N-Isopropyl-N'-phenyl-p-phenylenediamine], the IC50 in experiment [1] amounted to 34.2 µM; in experiment [2] (CYP1A2 IC50), 35.5 µM; in experiment [3] (CYP2C9 IC50), 0.97 µM; in experiment [4] (CYP2C19 IC50) it was 4.25 µM; in experiment [5] (CYP2D6 IC50) it was 9.04 µM; in experiment [6] (CYP3A4 IC50) it was 17.3 µM. Also, the “Luciferase Efficacy” value in experiment [1] is recorded as 34.17 ± 2.23 (-75 ± 7) %.

For `ClC1=C(Cl)C2(Cl)C3C4C=CC(C4)C3C1(Cl)C2(Cl)Cl` (stereo not drawn) [Aldrin], the “Luciferase IC50” value in experiment [1] is “Inactive”. The IC50 in experiment [2] (CYP1A2 IC50) was determined as 35.5 µM; in experiment [3] (CYP2C9 IC50), 33.6 µM; in experiment [4] (CYP2C19 IC50), 27.8 µM; in experiment [5] (CYP2D6 IC50) it was 44.9 µM; in experiment [6] (CYP3A4 IC50), 0.28 µM.

Consider `Fc1ccc([C@]2(Cn3cncn3)O[C@H]2c2ccccc2Cl)cc1` (racemic) [Epoxiconazole], for which, in experiment [1], the “Luciferase IC50 (half-maximal inhibitory concentration)” value is “Inactive”. For the same molecule, the concentration for half-maximal inhibition (IC50) in experiment [2] (setting [7]) is 3.92 µM; in experiment [3] (setting [8]), 5.66 µM; in experiment [4] (setting [9]), 0.34 µM; in experiment [5] (setting [10]), 37 µM; in experiment [6] (setting [11]), 0.91 µM.

With `CC1COC(Cn2cncn2)(c2ccc(Oc3ccc(Cl)cc3)cc2Cl)O1` (stereo not drawn) [Difenoconazole], the “Luciferase IC50 (half-maximal inhibitory concentration)” value in experiment [1] was “Inactive”. Further, the IC50 turned out to be 27.4 µM in experiment [2] (setting [7]); 1.22 µM in experiment [3] (setting [8]); 0.08 µM in experiment [4] (setting [9]); 34.4 µM in experiment [5] (setting [10]); 0.08 µM in experiment [6] (setting [11]).

Regarding `O=S1OCC2C(CO1)C1(Cl)C(Cl)=C(Cl)C2(Cl)C1(Cl)Cl` (stereo not drawn) [Endosulfan], the “Luciferase IC50” value in experiment [1] was “Inactive”. The half-inhibitory concentration (IC50) was 35.8 µM in experiment [2] (CYP1A2 IC50); 37.2 µM in experiment [3] (CYP2C9 IC50); 3.19 µM in experiment [4] (CYP2C19 IC50); 18 µM in experiment [5] (CYP2D6 IC50); 0.39 µM in experiment [6] (CYP3A4 IC50).

Consider `O=C1c2ccccc2C(=O)C1C(=O)C(c1ccccc1)c1ccc(Cl)cc1` (stereo not drawn) [Chlorophacinone], for which, in experiment [1], the “Luciferase IC50 (half-maximal inhibitory concentration)” value is “Inactive”. For the same molecule, the AC50 in experiment [2] (CYP1A2 AC50 (half-maximal activity concentration)) came to 8.52 µM; in experiment [3] (CYP2C9 AC50 (half-maximal activity concentration)), 0.76 µM; in experiment [4] (CYP2C19 AC50 (half-maximal activity concentration)), 11 µM; in experiment [5] (CYP2D6 AC50 (half-maximal activity concentration)) it was 44.9 µM; in experiment [6] (CYP3A4 AC50 (half-maximal activity concentration)), 33.6 µM. Further, the IC50 in experiment [2] (setting [7]) is 8.52 µM; in experiment [3] (setting [8]) it was 0.76 µM; in experiment [4] (setting [9]), 11 µM; in experiment [5] (setting [10]) it was 44.9 µM; in experiment [6] (setting [11]), 33.6 µM.

Consider `CCOP(=S)(NC(C)C)Oc1ccccc1C(=O)OC(C)C` (stereo not drawn) [Isofenphos], for which the “Luciferase IC50 (half-maximal inhibitory concentration)” value in experiment [1] is on record as “Inactive”. Also, the IC50 in experiment [2] (setting [7]) came to 9.71 µM; in experiment [3], 1.44 µM; in experiment [4] (setting [9]) it was 0.19 µM; in experiment [5] it was 60.6 µM; in experiment [6] (setting [11]), 0.68 µM.

Regarding `C[Si](Cn1cncn1)(c1ccc(F)cc1)c1ccc(F)cc1` [Flusilazole], the “Luciferase IC50 (half-maximal inhibitory concentration)” value in experiment [1] was “Inactive”. Also, the IC50 came to 27.9 µM in experiment [2] (setting [7]); 2.28 µM in experiment [3] (setting [8]); 0.06 µM in experiment [4] (setting [9]); 33 µM in experiment [5] (setting [10]); 0.16 µM in experiment [6] (setting [11]).

For the molecule `O=[N+]([O-])c1cc(C(F)(F)F)c(Cl)c([N+](=O)[O-])c1Nc1ncc(C(F)(F)F)cc1Cl` [Fluazinam], the half-maximal inhibitory concentration (IC50) in experiment [1] came to 89.4 µM; in experiment [2] (setting [7]), 35.6 µM; in experiment [3] (setting [8]), 0.73 µM; in experiment [4] (setting [9]), 14.8 µM; in experiment [5] (setting [10]), 46.2 µM; in experiment [6] (setting [11]), 18.7 µM.

As for `COP(=S)(OC)Oc1ccc([N+](=O)[O-])c(C)c1` [Fenitrothion], the IC50 came out at 67 µM in experiment [1]; 1.04 µM in experiment [2] (setting [7]); 6.12 µM in experiment [3] (setting [8]); 0.55 µM in experiment [4] (setting [9]); 35 µM in experiment [5] (setting [10]); 8.48 µM in experiment [6] (setting [11]).

On to `CCOP(=S)(OCC)Oc1cc(-c2ccccc2)on1` [Isoxathion], for which the IC50 in experiment [1] was determined as 33 µM; in experiment [2] (CYP1A2 IC50), 3.92 µM; in experiment [3], 0.75 µM; in experiment [4] (CYP2C19 IC50) it was 2.55 µM; in experiment [5] it was 35.6 µM; in experiment [6] (CYP3A4 IC50), 2.11 µM.
